{"source": "patent US10556994B2", "about": "“Strictly segmented thermoplastic elastomers as biodegradable biomaterials” (SyMO-Chem B.V., priority 2014, dated 2020)", "key": {"[1]": {"assay": "Solubility in PBS of hard block degradation products", "type": "physicochemical", "settings": "for solubility: aqueous buffer", "text": "The variety of the biodegradation products of the [AB]n materials of this invention is limited, where this is due to the simple and defined molecular structures of the [AB]n materials with only one type of soft block A and only one type of hard block B for a particular [AB]n material. […] Degradation products from the hard block are lower molecular weight molecules such as the molecules shown in Examples 25 and 26 (not: molecules 26E, 26F, 26G)."}, "3T3 mouse fibroblasts [2]": {"test_system": "3T3 mouse fibroblasts", "assay": "MTT cytotoxicity assay", "settings": "cells treated with medium exposed to the material, relative to untreated medium"}, "3T3 mouse fibroblasts [3]": {"test_system": "3T3 mouse fibroblasts"}}, "note": "Read-outs that look alike come from different tables or passages of the source.", "data": [{"compound": "NCCCCCNC(=O)CCCCCN", "note": "[Example 25C, 6-amino-N-(5-aminopentyl)hexanamide]", "values": [{"measurement": "solubility", "setting": "[1]", "value": "> 5000", "unit": "µg/mL"}]}, {"compound": "NCCCCNC(=O)CCCCC(=O)NCCCCN", "note": "[Example 25D, N^1,N^6-bis(4-aminobutyl)adipamide]", "values": [{"measurement": "solubility", "setting": "[1]", "value": "> 5000", "unit": "µg/mL"}]}, {"compound": "NCCCCCCNC(=O)NCCCCCCN", "note": "[Example 25E, 1,3-bis-(6-aminohexyl)urea]", "values": [{"measurement": "solubility", "setting": "[1]", "value": "> 5000", "unit": "µg/mL"}]}, {"compound": "O=C(O)CCCCCNC(=O)NCCCCNC(=O)NCCCCCC(=O)O", "note": "[Example 26B]", "values": [{"measurement": "solubility in PBS", "setting": "[1]", "value": "> 1000", "unit": "µg/mL"}]}, {"compound": "Triton X-100", "values": [{"measurement": "cell viability", "setting": "3T3 mouse fibroblasts [2]", "value": 0, "unit": "%"}]}, {"compound": "poly(hexyl carbonate-random-co-ε-caprolactone) bisurea [Example 32]", "values": [{"measurement": "cell viability", "setting": "3T3 mouse fibroblasts [3]", "value": "60-116%"}]}]}
